The assay deals with T1, glucosylceramide synthase (Homo sapiens, UniProt Q16739).
T1 construct: made in house; host or cells: Expi293F cells (transient expression, pcDNA3.3-TOPO vector); microsome fraction used as enzyme source
T1 sequence (Q16739 1-394): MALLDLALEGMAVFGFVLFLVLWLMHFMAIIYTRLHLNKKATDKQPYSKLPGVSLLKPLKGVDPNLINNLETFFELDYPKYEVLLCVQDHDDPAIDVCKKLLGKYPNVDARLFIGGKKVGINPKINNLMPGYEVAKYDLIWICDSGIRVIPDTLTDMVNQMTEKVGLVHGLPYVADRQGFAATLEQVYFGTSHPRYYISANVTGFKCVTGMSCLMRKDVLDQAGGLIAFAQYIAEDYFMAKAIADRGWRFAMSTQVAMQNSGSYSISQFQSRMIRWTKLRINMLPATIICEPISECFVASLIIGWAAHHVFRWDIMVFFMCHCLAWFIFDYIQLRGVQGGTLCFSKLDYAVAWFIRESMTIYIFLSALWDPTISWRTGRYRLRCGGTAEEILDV
The experiment in a line: Glucosylceramide synthase (GCS) enzyme assay, microsome fraction, C8 glucosylceramide quantified by Rapidfire MS/MS. Particulars: test compound 10 μM; 1.7 μM UDP-glucose, 3 μM C8 ceramide; room temperature 60 min; read-out: GCS enzyme inhibitory rate at 10 μM (%) (% of control). The class given is biochemical. Summed up: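 Test compound, 10 μM final, was run against human GCS from transfected Expi293F microsome fractions, using substrate solution of 6 μM C8 ceramide (in DOPC liposomes) plus 3.4 μM UDP-glucose, pH 7.5 Tris buffer, 60 min, room temperature. Product C8 glucosylceramide measured by Rapidfire MS/MS against an internal standard, % inhibition referenced to no-enzyme and DMSO wells.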
Take `O=C1c2ccnc(-c3ccccc3OCC(F)(F)F)c2CN1c1ccc(C2(O)CC(OCc3ccccc3)C2)cc1` (stereo not drawn) [Example 227, (cis or trans)-2-{4-[3-(benzyloxy)-1-hydroxycyclobutyl]phenyl}-4-[2-(2,2,2-trifluoroethoxy)phenyl]-2,3-dihydro-1H-pyrrolo[3,4-c]pyridin-1-one]: the inhibition at 10 µM amounted to 100%. Consider `O=C1c2ccnc(-c3ccccc3OCC(F)(F)F)c2CN1c1ccc(C2(O)CC(O)C2)cc1` (stereo not drawn) [Example 228, (cis or trans)-2-[4-(1,3-dihydroxycyclobutyl)phenyl]-4-[2-(2,2,2-trifluoroethoxy)phenyl]-2,3-dihydro-1H-pyrrolo[3,4-c]pyridin-1-one], for which the inhibition at 10 µM came to 86%. The same measure for `CC(C)(O)Cc1ccc(N2Cc3c(ccnc3-c3ccccc3OCC(F)(F)F)C2=O)cc1` [Example 229, 2-[4-(2-hydroxy-2-methylpropyl)phenyl]-4-[2-(2,2,2-trifluoroethoxy)phenyl]-2,3-dihydro-1H-pyrrolo[3,4-c]pyridin-1-one]: 99%; for `CN(C)C(=O)c1ccc(N2Cc3cnn(-c4ccccc4OCC(F)(F)F)c3C2)nc1` [Example 230, N,N-dimethyl-6-{1-[2-(2,2,2-trifluoroethoxy)phenyl]-4,6-dihydropyrrolo[3,4-c]pyrazol-5(1H)-yl}pyridine-3-carboxamide]: 73%; for `CN(C)C(=O)c1ccc(N2Cc3cnn(-c4ccc(F)cc4OCC(F)(F)F)c3C2)nc1` [Example 231, 6-{1-[4-fluoro-2-(2,2,2-trifluoroethoxy)phenyl]-4,6-dihydropyrrolo[3,4-c]pyrazol-5(1H)-yl}-N,N-dimethylpyridine-3-carboxamide]: 61%. As for `CC(C)(O)COc1ccc(N2Cc3c(ccnc3-c3ccccc3OCC(F)(F)F)C2=O)cn1` [Example 233, 2-[6-(2-hydroxy-2-methylpropoxy)pyridin-3-yl]-4-[2-(2,2,2-trifluoroethoxy)phenyl]-2,3-dihydro-1H-pyrrolo[3,4-c]pyridin-1-one], the inhibition at 10 µM stood at 96%.

For `CC(C)(O)c1ccc(N2Cc3c(ccnc3-c3ccc(F)cc3OCC(F)(F)F)C2=O)nc1` [Example 234, 4-[4-fluoro-2-(2,2,2-trifluoroethoxy)phenyl]-2-[5-(2-hydroxypropan-2-yl)pyridin-2-yl]-2,3-dihydro-1H-pyrrolo[3,4-c]pyridin-1-one], the inhibition at 10 µM turned out to be 99%.

With `Cn1cc2c(c(-c3ccccc3OCC(F)(F)F)c1=O)CN(c1ccc(OC(F)F)cc1)C2=O` [Example 236, 2-[4-(difluoromethoxy)phenyl]-5-methyl-7-[2-(2,2,2-trifluoroethoxy)phenyl]-1H-pyrrolo[3,4-c]pyridine-3,6(2H,5H)-dione], the inhibition at 10 µM is 100%.

With `N#CCc1ccc(N2Cc3c(ccnc3-c3ccc(F)cc3OCC(F)(F)F)C2=O)cc1` [Example 237, (4-{4-[4-fluoro-2-(2,2,2-trifluoroethoxy)phenyl]-1-oxo-1,3-dihydro-2H-pyrrolo[3,4-c]pyridin-2-yl}phenyl)acetonitrile], the inhibition at 10 µM was 91%. The same measure for `Cn1nc(N2Cc3c(ccnc3-c3ccc(F)cc3OCC(F)(F)F)C2=O)cc1C1CC1` [Example 239, 2-(5-cyclopropyl-1-methyl-1H-pyrazol-3-yl)-4-[4-fluoro-2-(2,2,2-trifluoroethoxy)phenyl]-2,3-dihydro-1H-pyrrolo[3,4-c]pyridin-1-one]: 51%. Turning to `CC(C)(O)c1ccc(N2Cc3c(ccnc3-c3ccc(F)cc3OCC(F)F)C2=O)cc1` [Example 241, 4-[2-(2,2-difluoroethoxy)-4-fluorophenyl]-2-[4-(2-hydroxypropan-2-yl)phenyl]-2,3-dihydro-1H-pyrrolo[3,4-c]pyridin-1-one], the inhibition at 10 µM came out at 98%. As for `O=C1c2ccnc(-c3ccccc3OCC(F)(F)F)c2CN1c1ccc(C2(O)CCOCC2)cc1` [Example 242, 2-[4-(4-hydroxyoxan-4-yl)phenyl]-4-[2-(2,2,2-trifluoroethoxy)phenyl]-2,3-dihydro-1H-pyrrolo[3,4-c]pyridin-1-one], the figure is 100%; as for `N#CC1(c2ccc(N3Cc4c(ccnc4-c4ccc(F)cc4OCC(F)(F)F)C3=O)cc2)CC1` [Example 244, 1-(4-{4-[4-fluoro-2-(2,2,2-trifluoroethoxy)phenyl]-1-oxo-1,3-dihydro-2H-pyrrolo[3,4-c]pyridin-2-yl}phenyl)cyclopropane-1-carbonitrile], 89%; as for `O=C1c2ccnc(-c3ccc(F)cc3OCC(F)(F)F)c2CN1c1ccc(C(O)(C(F)F)C(F)F)cc1` [Example 245, 4-[4-fluoro-2-(2,2,2-trifluoroethoxy)phenyl]-2-[4-(1,1,3,3-tetrafluoro-2-hydroxypropan-2-yl)phenyl]-2,3-dihydro-1H-pyrrolo[3,4-c]pyridin-1-one], 100%. Turning to `O=C1c2ccnc(-c3ccccc3OCC(F)(F)F)c2CN1c1ccc(C(O)(C(F)F)C(F)F)cc1` [Example 246, 2-[4-(1,1,3,3-tetrafluoro-2-hydroxypropan-2-yl)phenyl]-4-[2-(2,2,2-trifluoroethoxy)phenyl]-2,3-dihydro-1H-pyrrolo[3,4-c]pyridin-1-one], the inhibition at 10 µM was 100%. As to `O=C1c2ccnc(-c3ccccc3OCC(F)(F)F)c2CN1c1cnn(CC2(F)COC2)c1` [Example 247, 2-{1-[(3-fluorooxetan-3-yl)methyl]-1H-pyrazol-4-yl}-4-[2-(2,2,2-trifluoroethoxy)phenyl]-2,3-dihydro-1H-pyrrolo[3,4-c]pyridin-1-one], the inhibition at 10 µM was determined as 97%. Turning to `O=C1c2ccnc(-c3ccccc3OCC(F)(F)F)c2CN1c1cnn(CC2(F)CC2)c1` [Example 248, 2-{1-[(1-fluorocyclopropyl)methyl]-1H-pyrazol-4-yl}-4-[2-(2,2,2-trifluoroethoxy)phenyl]-2,3-dihydro-1H-pyrrolo[3,4-c]pyridin-1-one], the inhibition at 10 µM was 99%. As for `O=C1c2ccnc(-c3ccccc3OCC(F)(F)F)c2CN1c1ccc(C2(O)COC2)cn1` [Example 252, 2-[5-(3-hydroxyoxetan-3-yl)pyridin-2-yl]-4-[2-(2,2,2-trifluoroethoxy)phenyl]-2,3-dihydro-1H-pyrrolo[3,4-c]pyridin-1-one], the inhibition at 10 µM was 98%.

As to `CC(C)(CO)c1ccc(N2Cc3c(ccnc3-c3ccc(F)cc3OCC(F)(F)F)C2=O)cc1` [Example 253, 4-[4-fluoro-2-(2,2,2-trifluoroethoxy)phenyl]-2-[4-(1-hydroxy-2-methylpropan-2-yl)phenyl]-2,3-dihydro-1H-pyrrolo[3,4-c]pyridin-1-one], the inhibition at 10 µM was 98%. For `CC(C)(O)COc1ccc(N2Cc3c(ccnc3-c3ccc(F)cc3OCC(F)(F)F)C2=O)cc1` [Example 254, 4-[4-fluoro-2-(2,2,2-trifluoroethoxy)phenyl]-2-[4-(2-hydroxy-2-methylpropoxy)phenyl]-2,3-dihydro-1H-pyrrolo[3,4-c]pyridin-1-one], the inhibition at 10 µM was found to be 99%.

With `CC(C)(O)COc1ccc(N2Cc3c(ccnc3-c3ccc(F)cc3OCC(F)(F)F)C2=O)nc1` [Example 255, 4-[4-fluoro-2-(2,2,2-trifluoroethoxy)phenyl]-2-[5-(2-hydroxy-2-methylpropoxy)pyridin-2-yl]-2,3-dihydro-1H-pyrrolo[3,4-c]pyridin-1-one], the inhibition at 10 µM came out at 100%.

Source of the values: patent US12528802B2, “Heterocyclic compound” (Takeda Pharmaceutical Company Limited, priority 2019, dated 2026).
